According to US9282743B2, “Chemical compounds” (Syngenta Participations AG, priority 2011, dated 2016):

How the values were obtained:
Format in all cases: in vivo
Lolium perenne (LOLPE) [1] = test: Example B6: post application on weeds, LOLPE; conditions: 312 h, after 13 days, 100 = total damage, 0 = no damage, read-out: LOLPE damage to plant
Description: (§1) Lolium perenne (LOLPE), Alopecurus myosuroides (ALOMY), Echinochloa crus-galli (ECHCG) and Avena fatua (AVEFA). Activity Against Weeds Seeds of a variety of test species were sown in standard soil in pots. After cultivation for 8 days under controlled conditions in a glasshouse (at 24/16° C., day/night; 14 hours light; 65% humidity), the plants were sprayed with an aqueous spray solution derived from the formulation of the technical active ingredient in acetone/water (50:50) solution containing 0.5% Tween 20 (polyoxyethelyene sorbitan monolaurate, CAS RN 9005-64-5). The test plants were then grown in a glasshouse under controlled conditions in a glasshouse (at 24/16° C., day/night; 14 hours light; 65% humidity) and watered twice daily. After 13 days, the test was evaluated (100=total damage to plant; 0=no damage to plant).

[2] = system: Alopecurus myosuroides (ALOMY); test: Example B6: post application on weeds, ALOMY; conditions: 312 h, after 13 days, 100 = total damage, 0 = no damage, read-out: ALOMY damage to plant
Description: as §1

[3] = system: Echinochloa crus-galli (ECHCG); test: Example B6: post application on weeds, ECHCG; conditions: 312 h, after 13 days, 100 = total damage, 0 = no damage, read-out: ECHCG damage to plant
Description: as §1

Avena fatua (AVEFA) [4] = test: Example B6: post application on weeds, AVEFA; conditions: 312 h, after 13 days, 100 = total damage, 0 = no damage, read-out: AVEFA damage to plant
Description: as §1

Lolium perenne (LOLPE) [5] = test: Example B7: pre application on weeds, LOLPE; conditions: 312 h, pre-emergence spray one day after sowing, evaluated after 13 days, read-out: Pre application on weeds, LOLPE (100=total damage to plant; 0=no damage to plant)
Description: as §1, with “one day” for “8 days”

[6] = system: Alopecurus myosuroides (ALOMY); test: Example B7: pre application on weeds, ALOMY; conditions: 312 h, pre-emergence spray one day after sowing, evaluated after 13 days, read-out: Pre application on weeds, ALOMY (100=total damage to plant; 0=no damage to plant)
Description: as §1, with “one day” for “8 days”

[7] = system: Echinochloa crus-galli (ECHCG); test: Example B7: pre application on weeds, ECHCG; conditions: 312 h, pre-emergence spray one day after sowing, evaluated after 13 days, read-out: Pre application on weeds, ECHCG (100=total damage to plant; 0=no damage to plant)
Description: as §1, with “one day” for “8 days”

Avena fatua (AVEFA) [8] = test: Example B7: pre application on weeds, AVEFA; conditions: 312 h, pre-emergence spray one day after sowing, evaluated after 13 days, read-out: Pre application on weeds, AVEFA (100=total damage to plant; 0=no damage to plant)
Description: as §1, with “one day” for “8 days”

Winter wheat (TRZAW) = test: Example B8: post application on wheat, with and without safener cloquintocet-mexyl; conditions: after 13 days, 100 = total damage, 0 = no damage
Description: Application with Safener (Cloquintocet-Mexyl) Winter wheat seeds with a seed treatment of cloquintocet-mexyl applied at a rate of 0.5 g/kg seeds were sown in standard soil in pots. After cultivation for 8 days under controlled conditions in a glasshouse (at 24/16° C., day/night; 14 hours light; 65% humidity), the plants were sprayed with an aqueous spray solution derived from the formulation of the technical active ingredient in acetone/water (50:50) solution containing 0.5% Tween 20 (polyoxyethelyene sorbitan monolaurate, CAS RN 9005-64-5). The test plants were then grown in a glasshouse under controlled conditions in a glasshouse (at 24/16° C., day/night; 14 hours light; 65% humidity) and watered twice daily. After 13 days, the test was evaluated (100=total damage to plant; 0=no damage to plant).

[9] = 250 g/ha + 0.5 g/kg seeds cloquintocet-mexyl
[10] = 62.5 g/ha + 0.5 g/kg seeds cloquintocet-mexyl

Row | SMILES | pest or weed control at 250 g/ha (Lolium perenne (LOLPE) [1]) [%] | pest or weed control at 250 g/ha [2] [%] | pest or weed control at 250 g/ha [3] [%] | pest or weed control at 250 g/ha (Avena fatua (AVEFA) [4]) [%] | pest or weed control at 250 g/ha (Lolium perenne (LOLPE) [5]) [%] | pest or weed control at 250 g/ha [6] [%] | pest or weed control at 250 g/ha [7] [%] | pest or weed control at 250 g/ha (Avena fatua (AVEFA) [8]) [%] | TRZAW damage to plant (Winter wheat (TRZAW); [9]) | TRZAW damage to plant (Winter wheat (TRZAW); 250 g/ha, without safener) | TRZAW damage to plant (Winter wheat (TRZAW); [10]) | TRZAW damage to plant (Winter wheat (TRZAW); 62.5 g/ha, without safener)
1 | CON1CCn2c(OC(=O)C(C)(C)C)c(-c3c(C)cc(C)cc3C)c(=O)n2CC1 [Compound P1.1, 2,2-Dimethyl-propionic acid 3-methoxy-9-oxo-8-(2,4,6-trimethyl-phenyl)-2,3,4,5-tetrahydro-1H,9H-pyrazolo[1,2-a][1,2,5]triazepin-7-yl ester] | 100 | 100 | 100 | 100 | 100 | 90 | 20 | 50 | 50 | 70 | – | –
2 | CCOC(=O)Oc1c(-c2c(C)cc(C)cc2C)c(=O)n2n1CCN(OC)CC2 [Compound P1.2, Carbonic acid ethyl ester 3-methoxy-9-oxo-8-(2,4,6-trimethyl-phenyl)-2,3,4,5-tetrahydro-1H,9H-pyrazolo[1,2-a][1,2,5]triazepin-7-yl ester] | 100 | 50 | 100 | 100 | 90 | 80 | 40 | 80 | 30 | 80 | – | –
3 | CCOC(=O)Oc1c(-c2c(C)cc(Cl)cc2C)c(=O)n2n1CCN(OC)CC2 [Compound P1.3] | 60 | 80 | 60 | 80 | 10 | 0 | 20 | 0 | 20 | 70 | – | –
4 | C#Cc1cc(C)cc(C)c1-c1c(OC(=O)OCC)n2n(c1=O)CCN(OC)CC2 [Compound P1.5] | 90 | 100 | 100 | 100 | 30 | 40 | 20 | 90 | – | – | 20 | 80
5 | CCOC(=O)Oc1c(-c2cc(-c3ccc(Cl)cc3)ccc2C)c(=O)n2n1CCN(OC)CC2 [Compound P1.7] | 70 | 70 | 80 | 100 | 0 | 0 | 0 | 0 | – | – | 40 | 80
6 | C#Cc1cc(C)c(-c2c(OC(=O)OCC)n3n(c2=O)CCN(OC)CC3)c(C)c1 [Compound P1.8] | 40 | 80 | 70 | 80 | 0 | 0 | 20 | 20 | 20 | 60 | – | –
